The values that follow come from patent US20020082273A1, “Agents for use in the treatment of alzheimer's disease” (priority 1998, published 2002).

For data set [1] the following is noted: cited from earlier work; for LogK, Ca: Table 1, K=[ML]/[M][L].
The conditions of data set [2]: cited from earlier work; for LogK, Mg: Table 1, K=[ML]/[M][L].
For data set [3] the following is noted: cited from earlier work; for LogK, Al: Table 1, K=[ML]/[M][L].
For data set [4] the following is noted: cited from earlier work; for LogK, Cu: K=[ML]/[M][L].
The conditions of data set [5]: cited from earlier work; for LogK, Fe: Table 1, K=[ML]/[M][L].
For data set [6] the following is noted: cited from earlier work; for LogK, Zn: Table 1, K=[ML]/[M][L].
The conditions of data set [7]: cited from earlier work; for LogK, Co: Table 1, K=[ML]/[M][L].
In data set [8] the test system is Aβ deposits of AD-affected brain. In words: Extraction (solubilization) of Aβ from post-mortem AD brain tissue homogenates, western blot densitometry. The format is biochemical, human. The protocol:
Identical regions of frontal cortex (0.5 g) from post-mortem brains of individuals with AD, as well as non-AD conditions, were homogenized in TBS, […] ±metal chelators.
0.5 g of prefrontal cortex was dissected and homogenized in PBS ±chelator as indicated. The homogenate was then centrifuged (100,000 g) and the supernatant removed, and a sample taken for western blot assay using anti-Aβ specific antibodies after Tricine PAGE. Densitometry was performed against synthetic peptide standards.
Densitometry of Aβ western blots (FIGS. 19A-19C) was performed for a series of 6 AD brain samples homogenized in the presence of chelators as indicated.
Next the ability of clioquinol to extract Aβ deposits from human brain was examined. […] Fragments of prefrontal cortex from individual post-mortem samples with the histopathological diagnosis of AD were homogenized in PBS, pH 7.4, and then pelleted after centrifugation. The pellets were then washed with agitation twice for 30 minutes, 4° C., with PBS or PBS containing clioquinol (100% =0.8 μM clioquinol). The suspension was then pelleted (10,000 g for 30 minutes) and the supernatant removed (S1) for western blot analysis using Aβ-specific antibodies (illustrated). The pellet was treated a second time in this experiment with agitation and centrifugation, and the second supernatant (S2) analysed.
Soluble Aβ (ng/g tissue) was determined as described. Total Aβ was determined following formic acid extraction of otherwise untreated tissue.
Suitable quantities of gray matter from each subject were minced to serve as pools of homogenous tissue. […] To obtain the soluble fraction, the homogenates were centrifuged at 100,000× g for 30 min (Beckman J180, Beckman instruments, Fullerton, California) and the supernatant collected in 1 ml aliquots and stored on ice or immediately frozen at −70° C. In each experiment, all protein was precipitated from 1 ml of supernatant from each treatment group using 1:5 ice cold 10% trichloracetic acid and pelleted in a bench top microfuge (Heraeus, Osteroder, Germany) at 10,000× g. The remaining pellet was frozen at −70° C.
Precipitated protein was subjected to SDS polyacrylamide gel electrophoresis (SDS-PAGE) on Novex pre-cast 10-20% Tris-Tricine gels followed by Western transfer onto 0.2 μm nitrocellulose membrane (Biorad, Hercules, Calif.). […] Each gel included two or more lanes containing known quantities of synthetic Aβ which served as internal reference standards. Blot images were captured by a Relisys scanner with transparency adapter (Teco Information Systems, Taiwan, ROC) and densitometry conducted using the NIH Image 1.6 program (National Institutes for Health, USA. Modified for PC by Scion Corporation, Frederick, Md.), calibrated using a step diffusion chart. For quantitation of Aβ in brain extracts, the internal reference standards of synthetic Aβ were utilized to produce standard curves from which values were interpolated.

Data set [9] is described as follows: Residual metals in post-centrifugation pellets of brain homogenates (ICP-AES). The format is biochemical, human. Conditions: Table 6.

Where “and” joins values, the source holds several entries; their conditions need not be identical. Equal values may be shown once. Entries after “also recorded” stand apart in the source; their conditions may differ. Read-outs that look alike come from different tables or passages of the source.

As to `c1ccc(-c2ccnc3c2ccc2c(-c4ccccc4)ccnc23)cc1` [Bathophenanthroline], the “LogK, Ca” value in data set [1] was 0. Besides, in data set [2], the “LogK, Mg” value is 0. Moreover, the “LogK, Al” value in [3] was 0. Besides, the “LogK, Cu” value in data set [4] (Table 1) is 8.8. In addition, in data set [5], the “LogK, Fe” value is recorded as 5.6. In addition, the “LogK, Zn” value in [6] was 6.9. In addition, the “LogK, Co” value in data set [7] is on record as 0.

Take `O=C(O)CN(CCN(CC(=O)O)CC(=O)O)CCN(CC(=O)O)CC(=O)O` [DTPA, diethylenetriaminopenta acetic acid]: in data set [4] (FIG. 34C legend, metal not given, Cu^2+ implied), the log stability constant is 21.1.

As to `O=C(O)CN(CCOCCOCCN(CC(=O)O)CC(=O)O)CC(=O)O` [EGTA], the “LogK, Ca” value in [1] is listed as 10.9. In [1] (Table 5, NIST database), the “Stability constant logK10, Ca” value is on record as 10.86. Also, the “LogK, Mg” value in data set [2] is 5.3. Besides, the “Stability constant logK10, Mg” value in data set [2] (Table 5, NIST database) was 5.28. The “Effect of Chelators upon extraction of Aβ (% change from control)” value is given as 207% in [8] (0.1 mM chelator, mean n = 6 AD brain samples, above PBS extraction alone) and 46% in data set [8] (2.0 mM chelator, mean n = 6 AD brain samples, above PBS extraction alone). For the same compound, the “Aβ signal versus PBS control” value in [8] (EGTA 2 mM) was “virtually abolished the signal for Aβ; also recorded: diminution in Aβ signal”. In [8] (neutral saline buffer, TPEN 5 μM), the “efficiency in extracting Aβ” value is given as “less efficient”. The “Residual Al in extracted pellet” value in data set [9] (chelator 0.001 mM) is 43 mg/kg; in data set [9] (chelator 0.004 mM), 73 mg/kg; in data set [9] (chelator 0.01 mM), 61 mg/kg; in data set [9] (chelator 0.04 mM), 104 mg/kg; in [9] (chelator 2.0 mM) it was 62 mg/kg; in [9] (chelator 5.0 mM) it was 27 mg/kg. Besides, the “Residual Ca in extracted pellet” value came to 862 mg/kg in [9] (chelator 0.001 mM); 795 mg/kg in data set [9] (chelator 0.004 mM); 675 mg/kg in data set [9] (chelator 0.01 mM); 1402 mg/kg in [9] (chelator 0.04 mM); 519 mg/kg in [9] (chelator 2.0 mM); 455 mg/kg in data set [9] (chelator 5.0 mM). The “Residual Cu in extracted pellet” value in data set [9] (chelator 0.001 mM) stood at 12 mg/kg; in [9] (chelator 0.004 mM) it was 11 mg/kg; in [9] (chelator 0.01 mM) it was 13 mg/kg; in data set [9] (chelator 0.04 mM), 13 mg/kg; in data set [9] (chelator 2.0 mM) it was 13 mg/kg; in [9] (chelator 5.0 mM), 12 mg/kg. Also, the “Residual Fe in extracted pellet” value in [9] (chelator 0.001 mM) was 281 mg/kg; in data set [9] (chelator 0.004 mM), 247 mg/kg; in data set [9] (chelator 0.01 mM), 272 mg/kg; in data set [9] (chelator 0.04 mM), 438 mg/kg; in data set [9] (chelator 2.0 mM) it was 238 mg/kg; in [9] (chelator 5.0 mM), 230 mg/kg. Also, the “Residual Mg in extracted pellet” value is listed as 237 mg/kg in data set [9] (chelator 0.001 mM); 228 mg/kg in [9] (chelator 0.004 mM); 213 mg/kg in data set [9] (chelator 0.01 mM); 247 mg/kg in data set [9] (chelator 0.04 mM); 191 mg/kg in data set [9] (chelator 2.0 mM); 168 mg/kg in [9] (chelator 5.0 mM). In addition, the “Residual Zn in extracted pellet” value came to 49 mg/kg in data set [9] (chelator 0.001 mM); 53 mg/kg in data set [9] (chelator 0.004 mM); 54 mg/kg in data set [9] (chelator 0.01 mM); 71 mg/kg in data set [9] (chelator 0.04 mM); 27 mg/kg in [9] (chelator 2.0 mM); 18 mg/kg in data set [9] (chelator 5.0 mM). Moreover, the “LogK, Al” value in data set [3] is recorded as 13.9. Also, the “Stability constant logK10, Al” value in data set [3] (Table 5, NIST database) is given as 13.9. Besides, the “LogK, Cu” value in data set [4] (Table 1) was 17.6. In addition, the “Stability constant logK10, Cu” value in data set [4] (Table 5, NIST database) was 17.57. For the same compound, the “LogK, Fe” value in data set [5] was 11.8. In data set [5] (Table 5, NIST database), the “Stability constant logK10, Fe” value was 11.8. The “LogK, Zn” value in data set [6] is recorded as 12.6. Further, in [6] (Table 5, NIST database), the “Stability constant logK10, Zn” value is on record as 12.6. In addition, the “LogK, Co” value in [7] was 12.4. Besides, in [7] (Table 5, NIST database), the “Stability constant logK10, Co” value is given as 12.35.

Consider `CC(C)(S)[C@@H](N)C(=O)O` [Penicillamine], for which, in [1], the “LogK, Ca” value is 0. Also, the “LogK, Mg” value in data set [2] is 0. Further, the “LogK, Al” value in data set [3] is reported as 0. The “LogK, Cu” value in data set [4] (Table 1) is listed as 18.2. Moreover, the “LogK, Fe” value in data set [5] is reported as 0. Moreover, the “LogK, Zn” value in [6] is listed as 10.2. In addition, in data set [7], the “LogK, Co” value is listed as 0.

On to bathocuproinedisulfonic acid [BC], for which, in data set [1], the “LogK, Ca” value is reported as 0. In addition, in data set [2], the “LogK, Mg” value was 0. In data set [8], the “Effect of Chelators upon extraction of Aβ (% change from control)” value is 301% and 400%; the “efficiency in extracting Aβ” value was “highly efficient”. Further, the “LogK, Al” value in [3] is listed as 0. The “LogK, Cu (Cu^+)” value in [4] (Table 1, value for Cu^+) was 19.1. Also, in [5], the “LogK, Fe” value is recorded as 0. The “LogK, Zn” value in data set [6] was 4.1. In data set [7], the “LogK, Co” value is listed as 4.2.
